Data taken from PMC5770468, “Cardiac glycoside/aglycones inhibit HIV-1 gene expression by a mechanism requiring MEK1/2-ERK1/2 signaling” (Scientific Reports, 2018).
Where two headings read alike, the source gives them in different places.

How the values were obtained:
HIV-1 US RNAs = test: FISH localization of HIV-1 US RNA in HeLa rtTA-HIV(Gag-GFP) cells; assay type: cell-based; conditions: ~IC90s of CSs
Description: Figure 4 CSs suppress HIV-1 gene expression by altering viral RNA processing. […] (a,b) CSs induce oversplicing of HIV-1 RNAs (n ≥ 3, mean, s.e.m.). (a) Diagram of the primer positions (arrow heads) used for qRT-PCR. (b) Graph of the relative amount of US (black), SS (white), and MS (gray) HIV-1 RNAs in cells treated with various CSs. (c) Nuclear export of HIV-1 US RNAs in cells is altered by CSs (representative n ≥ 4). HIV-1 US RNAs were localized by FISH after treating HeLa rtTA-HIV(Gag-GFP) cells as described above but with ~IC90s of CSs. Nuclei were stained by DAPI and images captured at 630 × magnification. (d) CSs induce differential post-translational modification of SR proteins (representative n ≥ 3). SRp20, Tra2β, and tubulin were analyzed by immunoblot of HeLa rtTA-HIV-ΔMls cells treated as described above except cells of this representative blot were treated 3 d with ~IC50s of CSs. (g) Lanes were cropped and assembled from the same gel/blot per box (Supplementary Fig. S4d).
RNA was extracted from cells, reverse transcribed, and resulting cDNAs subject to qRT-PCR quantification of HIV-1 mRNAs as previously described except reactions used iTaq™ Universal SYBR® Green Supermix (Bio-Rad, #172-5120) run on a Bio-Rad CFX384 Touch™ Real-Time PCR Detection System and analyzed with CFX Manager™[9]. NKA α1, 2, and 3 subunits were detected by published primers, amplified by iTaq using the same cycling temperature and times previously described for HIV-1 US/MS cDNAs except α1, 2, and 3 annealing temperatures were 61 °C[9],[73]. All data was normalized to β-actin as internal loading control. Primers sequences for NKA α subunits were as follows: α1 forward (5′-[…] -3′), α1 reverse (5′- […] -3′), α2 forward (5′-[…]-3′), α2 reverse (5′-[…]-3′), α3 forward (5′-[…]-3′), and α3 reverse (5′-GGGCAGACTCAGACGCATC-3′). Monitoring the subcellular localization of HIV-1 genomic RNA. HeLa rtTA-HIV(Gag-GFP) cells were seeded on cover slips, treated with drug/compound, and processed for FISH to detect HIV-1 US RNAs using Stellaris™ probes (Biosearch Technologies) as previously detailed[10],[11].

HeLa rtTA-HIV-ΔMls cells = test: In vitro therapeutic index (CC20/IC50) in HeLa rtTA-HIV-ΔMls cells; assay type: cell-based, human
Description: Without median toxic dose (TD50) and half-maximal effective concentration (EC50) data available to calculate TIs (in vivo) from HIV patients treated with CSs, we determined the following TIs for each cell type treated with a CS (summarized in Supplementary Table S1): in vitro TIs from HeLa rtTA-HIV-ΔMls cells using CC20/IC50 (instead of CC50/IC50), in vitro TIs from 24ST1NLESG cells using CC50/IC50, and ex vivo TIs from HIV-infected PBMCs using CC50/IC50 (at day 14 of culture approximated from available cell viability trends for CC50s of Supplementary Fig. S13 and inferred near maximal IC50s).
Supplementary Table S1. Comparison of the in vitro (IVTI) and ex vivo therapeutic indices (EVTIs) of CSs and their impact on the expression of essential HIV-1 proteins.
Notes: data for CC20, CC50, and IC50s for each drug/compound were estimated from dose response curves in Figures 1-2, Supplementary Table S1, Supplementary Figures S2, S5, and S13, and Wong et al.
">" means the estimate has not been accurately determined but is greater than the highest concentration […]
"( )" indicates preliminary data that was not shown. aCC20 instead of CC50 was estimated from dose response curves and used for calculation of IVTIs. bCells were treated at ~IC90of a CS.
(1 picture or pasted object on this page, not shown here)

[1] = system: HIV-1 (Gag) gene expression; test: HIV-1 (Gag) gene expression in HeLa rtTA-HIV-ΔMls cells, p24CA ELISA dose response; assay type: cell-based, HIV-1 (LAI)
Method: Drug/compounds were tested for effects on HIV-1 gene expression using inducible Tet-ON HIV-1 cell lines [HeLa rtTA-HIV-ΔMls or rtTA-HIV(Gag-GFP)] containing a HIV-1 (LAI) provirus activatable by Dox or tetracycline transactivator (tTA)[69]. The rtTA-HIV-ΔMls provirus was modified and used as previously reported[9]–[11],[70]. The rtTA-HIV(Gag-GFP) provirus was generated by deletion of the PR and RT coding regions within pol and insertion of GFP to the 3′ of gag, creating GFP fused to the C-terminal of Gag. After 4 h of drug/compound treatment, HIV-1 gene expression was activated with Dox (2 μg/mL) or tTA (described below). Equal concentrations of DMSO were present in each experiment. After ~20 h, cells and media were harvested to monitor the effects of drug/compound treatments as described below. HIV-1 gene expression was quantified via p24^CA ELISA or monitoring Gag-GFP fluorescence in cells as described below. In parallel, cell viability of treatments were assessed by XTT assay (Sigma-Aldrich, #TOX2).
Drug/compounds were purchased from Sigma (Digoxin, #D6003; Digitoxin, #D5878; Digoxigenin, #D9026; Digitoxigenin, #D9404; Ouabain, #O3125; Bufalin, #S961175; Cinobufagin, #C1272; and Anisomycin, #A9789) and derivatives of convallatoxin were synthesized from C. Lingwood’s lab of the Hospital for Sick Children (convallatoxin, peruvoside, RIDK-34, -36, -20, -21, -27, and -28). […] Recombinant human EGF was from Invitrogen (#PHG0314). Chemical structures were drawn in ChemSketch (ACD/Labs).
To monitor HIV-1 gene expression or replication, Gag release into cell culture supernatants were assayed by ELISA using a p24^CA antigen capture assay kit (AIDS & Cancer Virus Program, NCI-Frederick, Frederick, MD USA). Media harvested from HIV clinical isolates were diluted ~10 fold (or as necessary) prior to performing this assay. For analysis of HIV-1 and SR protein expression (and phosphorylation states with calf intestinal alkaline phosphatase treatments), cells were lysed and analyzed by western blot as previously outlined. Phosphatase inhibitors (e.g. 10 mM sodium fluoride, 2 mM sodium orthovanadate) were added to solutions requiring phospho protein analyses. An anti-chicken NKA antibody (α6F, #a6F–c, Developmental Studies Hybridoma Bank, The University of Iowa, contributed by Douglas M. Fambrough, The Johns Hopkins University) was used as specified to detect NKA α1- and β1-subunits across species. […] Activation of MAPKs was determined by western blot quantitation and calculation of phospho/total protein levels. […] Images were exported as TIF files for assembly, rotation, and equal brightness/contrast adjustments in ImageJ or Microsoft Powerpoint. Some lanes were cropped and rearranged from the same blot/gel as indicated. In representative gel/blot sets, samples were electrophoresed from the same experiment as controls, resolved simultaneously on identically cast gel(s), transferred to same PVDF (by either wet electrophoretic or by Bio-Rad Trans-Blot® Turbo Transfer System), and detected at same time. Marked locations of molecular weight (MW) standards are shown on the left as a reference. […] SUnSET analysis of total cellular protein synthesis. HeLa rtTA-HIV-ΔMls cells were cultured in the presence/absence of compound and pathway inhibitor (if any) and Dox induced for ~24 h as already described, then treated with puromycin (10 μg/mL, Sigma-Aldrich, #P8833) for 30 min to label nascent proteins prior to harvest. As control, 10 µM of cycloheximide (Sigma-Aldrich, #C4849) was added to some cells prior to puromycin treatment. Cells were subsequently washed, whole cell lysates prepared, and proteins quantified by western blot using an anti-puromycin antibody (EMD Millipore, #anti-12D10) as described above. Transfection of plasmid DNA into cells.

Question: Which results are given for `C[C@]12CC[C@H](O)C[C@H]1CC[C@@H]1[C@@H]2CC[C@]2(C)[C@@H](c3ccc(=O)oc3)CC[C@]12O` [Bufalin]?
Answer: HIV-1 US RNA subcellular localization (HIV-1 US RNAs): almost exclusively within the nucleus; better in vitro TI than digoxin (HeLa rtTA-HIV-ΔMls cells): 9 fold; IC50 lower for HIV-1 inhibition compared to digoxin [1]: 9 fold; better anti-HIV-1 activity than digoxin [1]: 9 fold; IC50 ([1]; Human immunodeficiency virus 1, HeLa, read-out: IC50 (nM) HeLa rtTA-HIV-ΔMls): 5 nM; IC90 ([1]; Human immunodeficiency virus 1, HeLa, read-out: IC90, HIV-1 (Gag) gene expression): 15 nM; IC80 ([1]; Human immunodeficiency virus 1, HeLa, read-out: ~IC80 (approximate concentration used in experiments)): ~11 nM; IC90 ([1]; Human immunodeficiency virus 1, HeLa, read-out: ~IC90 (approximate concentration used in experiments)): ~15 nM
